US6821289B2, “Efficacy and safety of photodynamic therapy by multiple application protocols with photosensitizers that show extended tumor retention” (CeramOptec Industries, Inc., priority 2003, dated 2004)

How the values were obtained:
tumor [1] = details: mice; cited from earlier work
[2] = system: chemically induced rat skin tumor; details: cited from earlier work
tumor [3] = assay: PS concentration over time in tumor and normal tissue during repetitive administration of pheophorbide a (FIG. 1); type: in vivo
Procedure: FIG. 1 Graphic representation of PS concentration over time in tumor and normal tissue, for example the skin, during repetitive administration of pheophorbide a.
FIG. 1 illustrates preferred intervals between administration of doses of pheophorbide a in cancerous tissue. As is shown in the figure, upon a first administration the concentration of pheophorbide a is initially high and slowly decreases. The concentration in healthy tissue quickly decreases and levels off, where at 24 hours the concentration in healthy tissue is very low and has reached a point where the concentration decreases very slowly. After the first 24 hour interval, the concentration in the tumor is 17 times that in healthy cells. The same effect is observed after the second administration of pheophorbide a. As a result, after a total of four administrations and a total time of 96 hours, the concentration of pheophorbide a in healthy tissues remains very small, and the concentration in the tumor is greater by a factor of 68.

[4] = system: xenografted human pancreatic tumor; details: cited from earlier work
pancreatic tumor = details: rats, cited from earlier work
rat pituitary tumor = details: cited from earlier work
pancreas carcinoma = assay: PDT of a pancreas carcinoma, four intravenous administrations (Example 1); type: in vivo; details: 100-200 J/cm^2 at approximately 100 mW/cm^2
Procedure: A formulation of the PS pheophorbide a is administered intravenously 4 times as described above, with doses ranging from approximately 2 to 20 mg of PS per kilogram of body weight, achieving an at least a 50:1 ratio of PS content in the carcinoma to the PS content in the surrounding healthy pancreatic tissue. Light guiding fibres are placed within the tumor under imaging guidance. The tumor is irradiated with an energy density sufficient to necrotize the diseased tissue, preferably 100-200 J/cm^2, at a power density of approximately 100 mW/cm^2.

Compound | change in concentration in plasma, single versus double injections (tumor [1]) | relative concentration in skin and tumor tissue, single versus double injections (tumor [1]) | time for which pheophorbide a content remained high in tumor ([2]; chemically induced rat skin tumor, after administration) | time at which pheophorbide a content of normal skin reached a basal value ([2]; rat normal skin, after administration) | basal normal skin content as fraction of tumor pheophorbide a content ([2]; rat, 24 hours after administration) | concentration in tumor relative to healthy tissues (tumor [3]; after four administrations, total time 96 hours) | concentration in tumor relative to healthy cells (tumor [3]; after the first 24 hour interval, one administration) | time at which PS content of normal skin reached a low basal value ([4]; nude mice normal skin) | change of pheophorbide a content of tumor ([4]; xenografted human pancreatic tumor in nude mice, between 4 and 48 hours after administration) | time at which pheophorbide a content of normal pancreas reached a low constant value (pancreatic tumor; normal pancreas) | time for which content of pancreatic tumor remained elevated (pancreatic tumor; pancreatic tumor) | time at which content of normal pituitary gland reached a basal value (rat pituitary tumor; rat normal pituitary gland) | change of pheophorbide a content of tumor (rat pituitary tumor; rat pituitary tumor, during 6 hours after administration) | effect on surrounding tissue upon irradiation (pancreas carcinoma)
Oc1cccc(-c2c3nc(c(-c4cccc(O)c4)c4ccc([nH]4)c(-c4cccc(O)c4)c4nc(c(-c5cccc(O)c5)c5ccc2[nH]5)CC4)C=C3)c1 [Foscan, meta-tetrahydroxyphenylchlorin] | not significantly different | nor was the relative concentration in skin and tumor tissue significantly different |  |  |  |  |  |  |  |  |  |  |  | 
pheophorbide a |  |  | up to 48 hours | ≤ 24 h | one tenth | 68 factor | 17 times | 24 h | did not decrease | 24 h | at least 48 hours | 4 h | decreased slowly | remains intact
